“And” between values parts separate entries of the source, which are not always exact repeats. Equal values may be shown once. The source made the active and inactive calls.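 The calls were made as follows: active = compounds giving half or more protection of infected cells from virus-caused growth loss, again on retest; inactive = the rest.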 Where a SMILES comes first, the peptide text is derived from it. [ ]: non-standard residue; d: D form. The star is where a group is joined. ξ: configuration not given here. Phe(4-NO2) = N[CH](Cc1ccc([N+](=O)[O-])cc1)C(=O)O; Boc = CC(C)(C)OC(=O)*; Bz = O=C(c1ccccc1)*; Bn = c1ccc(C*)cc1; ξC = NC(CS)C(=O)O

The test has as its system CEM cells HIV-1 protection, formazan growth assay. Put plainly: NCI AIDS Antiviral Assay. As to conditions: for IC50: measured here: growth of uninfected CEM cells. The procedure, abridged:
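Human CEM cells, uninfected and HIV-1-infected, exposed to five drug concentrations; growth measured by soluble formazan assay and scored as percent protection from infection, with protecting compounds retested.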

As to `NS(=O)(=O)c1ccc(NC(=O)c2ccccc2SSc2ccccc2C(=O)Nc2ccc(S(N)(=O)=O)cc2)cc1`, the half-maximal effective concentration (EC50) (commonly the concentration needed to bring the measured effect to its halfway point) was 2.19 µM and the concentration for half-maximal inhibition (IC50) (in general, the concentration at which inhibition is half-maximal) worked out at 85.1 µM.
For `COc1cc(Cc2nnc(N)nc2N)cc(OC)c1OC` the same measures were greater than 17.8 µM and greater than 17.8 µM.
For `CC(=O)NS(=O)(=O)c1ccc(NCc2cccc3c(=O)c4ccc(Cl)cc4oc23)cc1` the same measures were greater than 200 µM and 3.16 µM.
For the compound `CCCCC(C(=O)C(=O)NC1C2CC3CC(C2)CC1C3)C(=O)C(C)C` (stereo unspecified), the EC50 is greater than 74.1 µM and the IC50 is greater than 74.1 µM.
As for `CCOC(=O)CCC(NC(=O)C(Cc1ccc([N+](=O)[O-])cc1)NC(=O)OC(C)(C)C)C(=O)NC(CCC(=O)OCC)C(=O)OCC` (stereo unspecified) (Boc-[Phe(4-NO2)]-Glu(OEt)-Glu(OEt)-OEt; configuration not given here), the EC50 was greater than 200 µM and the IC50 amounted to 9.77 µM.
As to `CC(=O)NC(CCCNC(=O)N(CCCl)N=O)C(=O)NCc1ccccc1` (stereo unspecified), the EC50 was greater than 631 µM and the IC50 was 69.2 µM.
On to `O=C1CC2(C(=O)O1)C1C(=O)OC(=O)C1C1c3ccccc3C=NN12` (stereo unspecified), for which the EC50 is greater than 692 µM and the IC50 is greater than 692 µM.
As for `COc1ccc2nc3c([N+](=O)[O-])ccc4c3c(c2c1)NCCN4CCO`, the EC50 was greater than 200 µM and the IC50 is 0.398 µM.
For `CC(=O)Oc1ccccc1/C=C/C(=O)/C=C/c1ccccc1OC(C)=O` the same measures were greater than 20 µM and 2.14 µM.
Consider `Cc1cc(C)nc(NS(=O)(=O)c2ccc(Nc3c4ccccc4nc4c(C(=O)NC(CO)(CO)CO)cccc34)cc2)n1`, for which the EC50 was greater than 200 µM and the half-maximal inhibitory concentration (IC50) was found to be 9.33 µM.
Turning to `Clc1ccccc1CN1COc2c(cc(Cl)c3cccnc23)C1`, the EC50 is greater than 87.1 µM and the IC50 came out at 4.57 µM.
On to `C/C([O-])=c1\c(C)nn2ccc[n+]12`, for which the EC50 is greater than 309 µM and the concentration for half-maximal inhibition (IC50) was greater than 309 µM.
On to `O=C1CC(c2ccccc2)C2(C(=O)NC(=S)NC2=O)C(c2ccccc2)C1` (stereo unspecified), for which the EC50 was greater than 75.9 µM and the half-maximal inhibitory concentration (IC50) is 55 µM.
For `CCN(CC)C(=Nc1ccc(Cl)c(Cl)c1)SC(NC=O)=C(Cl)Cl` the same measures were greater than 200 µM and 19.5 µM.
For the compound `COc1cc2cc3c(c(-c4ccc5c(c4)OCO5)c2c(OC)c1OC)COC3=O`, the EC50 is greater than 34.7 µM and the half-inhibitory concentration (IC50) came to 17.8 µM.
On to `CC(C)(C)OC(=O)NCCc1cccc2c1oc1c(CCC(=O)O)cccc12`, for which the EC50 was greater than 309 µM and the IC50 was 110 µM.
As to `O=C1[C@@H]2C(c3c(Cl)cccc3Cl)=NO[C@@H]2C(=O)N1c1ccc(Cc2ccc(N3C(=O)[C@H]4C(c5c(Cl)cccc5Cl)=NO[C@H]4C3=O)cc2)cc1`, the EC50 is greater than 35.5 µM and the IC50 was greater than 35.5 µM.
Take `N#CC1CCCCCCCCCCC(=O)N(CCCl)C1=O` (stereo unspecified): the EC50 was greater than 60.3 µM and the IC50 is greater than 60.3 µM.
Take `COc1cc(N)c2c(c1)SCC(=O)N2`: the EC50 was greater than 200 µM and the concentration for half-maximal inhibition (IC50) was 148 µM.
In the case of `CCN(CC)CC(C)C1NS(=O)(=O)c2ccccc21` (stereo unspecified), the EC50 was greater than 200 µM and the half-inhibitory concentration (IC50) was greater than 200 µM.
`C[CH2][Sn]([CH2]C)([O]C(=O)c1ccccc1F)[O]C(=O)c1ccccc1F`: the EC50 was greater than 29.5 µM and the IC50 came to 17.4 µM.
As to `CC(=O)Nc1c(C#N)c2n(c1C(=O)Nc1ccccc1)CCC2`, the EC50 is greater than 200 µM and the concentration for half-maximal inhibition (IC50) is greater than 200 µM.
For the compound `c1cc(-c2cn[nH]c2)cc(-c2cn[nH]c2)c1`, the result was inactive.
Take `CC1=NN2C(=O)C(c3ccccc3)SC2=NC(C)(C)C1` (stereo unspecified): the EC50 was greater than 457 µM and the concentration for half-maximal inhibition (IC50) was greater than 457 µM.
`CC(CN)OC12CC3CC(CC(C3)C1)C2` (stereo unspecified): the EC50 is greater than 200 µM and the IC50 stood at 105 µM.
For `FC(F)(F)c1nc(Cl)c2ncsc2n1`, the EC50 was greater than 200 µM and the IC50 is 2.4 µM.
Take `CC1(C)OC(C(C)(C)O)C(C(C)(C)O)O1` (stereo unspecified): the EC50 is greater than 200 µM and the IC50 was greater than 200 µM.
Turning to `CCOc1ccc(OCC)c([P+](c2ccccc2)(c2ccccc2)c2ccccc2)c1`, the outcome was inactive.
Regarding `C/C(=C/C=C(/C)C(=O)O)C(=O)O`, the EC50 was greater than 1480 µM and the concentration for half-maximal inhibition (IC50) was greater than 1480 µM.
Turning to `CSc1cccc(-n2c3nc(=O)n(C)c(=O)c-3nc3ccccc32)c1`, the outcome was inactive.
Take `COc1cccc(C2SCC(=O)N2c2ccc(-n3c(-c4ccccc4)nc4ccccc4c3=O)cc2)c1OC` (stereo unspecified): the EC50 was greater than 200 µM and the IC50 was greater than 200 µM.
`COCc1cc2c(cc1/C=C/[N+](=O)[O-])OCO2`: the EC50 was greater than 200 µM and the IC50 is 2.95 µM.
For `C[N+]1(C)CN(c2ccccc2)C2(CCN(CCCC(=O)c3cccs3)CC2)C1=O` the same measures were greater than 200 µM and 55 µM.
Consider `O=C(CN1CCCCC1)c1ccc2c(c1)Sc1ccccc1O2`, for which the EC50 was greater than 200 µM and the 50% inhibitory concentration (IC50) was 3.47 µM.
On to `CC1=NN(c2nc(N)nc(C/C(N)=N/O)n2)C(C)(C)C1`, for which the EC50 was greater than 200 µM and the IC50 is greater than 200 µM.
Take `CC(=O)N1CCC23c4ccccc4N(C)C2CC(=O)CC13` (stereo unspecified): the EC50 is greater than 871 µM and the half-maximal inhibitory concentration (IC50) was greater than 871 µM.
Regarding `COC(OC)c1cc2c(cc1C(=O)[C@@]13CCC[C@@H]1NC(=O)O3)OCO2`, the outcome was inactive.
Regarding `CCOC(=O)C1C(c2ccc(OC)cc2)C(C(=O)OCC)C(O)(C(F)(F)F)OC1(O)C(F)(F)F` (stereo unspecified), the EC50 is greater than 257 µM and the IC50 was 151 µM.
Turning to `COC(=O)C(CSCc1ccccc1)NC(=O)CNC(=O)c1ccccc1` (stereo unspecified) (Bz-Gly-[ξC](Bn)-OMe), the EC50 was greater than 245 µM and the IC50 worked out at 219 µM.
On to `CC1=C(c2ccccc2)NC(=S)C(C)C(c2ccccc2)=N1` (stereo unspecified), for which the EC50 is greater than 200 µM and the IC50 amounted to 28.2 µM.
As for `CC(C)c1cccc(C(C)C)c1NC(=S)Nc1ccccc1`, the result was inactive.
As to `O=C1Sc2ccc(Cl)cc2C(=O)N2CCSC12` (stereo unspecified), the EC50 was greater than 50.1 µM and the IC50 was greater than 50.1 µM.
Consider `CC1(C)OCC(C(O)C2OC(C)(C)OC2C=O)O1` (stereo unspecified), for which the EC50 was greater than 200 µM and the IC50 is greater than 200 µM.
In the case of `CCC(C)[P+](c1ccccc1)(c1ccccc1)c1ccccc1` (stereo unspecified), the EC50 was greater than 200 µM; the half-maximal inhibitory concentration (IC50) was 2.63 µM and 2.51 µM.
As to `CCn1c(-c2ccc(C)cc2)cs/c1=N\C(P(=O)(O)O)P(=O)(O)O`, the EC50 is greater than 50.1 µM and the half-maximal inhibitory concentration (IC50) was greater than 50.1 µM.
Take `CCN(CC)CCCC(C)Nc1cc(-c2ccccc2)nc2ccccc12` (stereo unspecified): the EC50 was greater than 17.8 µM and the concentration for half-maximal inhibition (IC50) was found to be 7.76 µM.
As for `Cc1cccc(/C=N/NC(=S)N2CCCCCC2)n1`, the EC50 is greater than 200 µM and the IC50 worked out at 0.0631 µM.
For `CC(C)(S)C(N)C(=O)O` (stereo unspecified) the same measures were greater than 1660 µM and greater than 1660 µM.
`N#Cc1c(O)c(/C=N/c2ncccn2)c(=O)n2c1[nH]c1ccccc12`: the EC50 is greater than 200 µM and the IC50 is greater than 200 µM.
For `OC12C3C4CC5C(C4[C@@H]1Br)C2[C@@](O)(c1c(F)c(F)c(F)c(F)c1F)C53` (stereo partly specified), the EC50 is greater than 200 µM and the IC50 was found to be 69.2 µM.
`COC(=O)/C(C#N)=C(/NCc1ccccc1)Nc1ccccc1`: the EC50 is greater than 200 µM and the half-maximal inhibitory concentration (IC50) came to 22.4 µM.
For `CC1=CC(=Nc2cccc3c(N=C4C=C(C)C(=O)O4)cccc23)OC1=O` the same measures were greater than 200 µM and 1.41 µM.
Turning to `CN1NC(C2NN(C)C(=O)N(C)N2)NN(C)C1=O`, the EC50 was greater than 977 µM and the 50% inhibitory concentration (IC50) worked out at 33.1 µM.
For `CCCCCCCCCCCCC1N=C(N)N2CCCC2=C1C(=O)OC` (stereo unspecified), the EC50 is greater than 200 µM and the IC50 was 4.9 µM.
On to `C=C(C)S(=O)(=O)c1ccccc1`, for which the result was inactive.
As for `CC(C)CC(NC(=O)c1ccccc1SC(=O)CCCC[n+]1ccccc1)C(N)=O` (stereo unspecified), the EC50 is 1.74 µM and the 50% inhibitory concentration (IC50) worked out at 4.07 µM.
For `O=C(/C=C/c1ccccc1)NC1C=Nc2ccc(Cl)cc2NC1=O` (stereo unspecified) the same measures were greater than 200 µM and 25.7 µM.
For the compound `CCCCc1c2c(nc3c1CCc1cc4c(nc1-3)-c1nc3c(c(CCCC)c1CC4)CCC/C3=C\c1ccccc1)/C(=C/c1ccccc1)CCC2`, the EC50 is greater than 5.5 µM and the 50% inhibitory concentration (IC50) was greater than 5.5 µM.
Turning to `O=C(O)CCCCCCC(=O)O`, the EC50 was greater than 1450 µM and the IC50 was greater than 1450 µM.
`O=C(/C(=C/c1ccc(Cl)cc1)c1ccccc1)c1ccccc1`: the EC50 was greater than 8.51 µM and the IC50 is greater than 8.51 µM.
With `O=C(O)CC(NC(=O)/C(=C/c1ccccc1)NC(=O)c1ccccc1)C(=O)O` (stereo unspecified), the EC50 is greater than 200 µM and the IC50 is greater than 200 µM.
On to `C=CCCC12CCCC(=O)C1Sc1ccccc12` (stereo unspecified), for which the EC50 was greater than 138 µM and the 50% inhibitory concentration (IC50) is 91.2 µM.
For `NS(=O)(=O)c1ccc(NC(NC(=O)C(C(F)(F)F)C(F)(F)F)(C(F)(F)F)C(F)(F)F)cc1` the same measures were greater than 200 µM and greater than 200 µM.
For `O=C(NNC(=O)c1ccccc1S)c1ccccc1S`, the EC50 is 4.17 µM and the IC50 was determined as 14.5 µM.
Take `CC(C)CCC[C@@H](C)C1CCC2[C@@H]3CCC4CC(=C(c5cc(Cl)c(O)c(C(=O)O)c5)c5cc(Cl)c(O)c(C(=O)O)c5)CC[C@]4(C)C3CC[C@@]21C` (stereo partly specified): the concentration for a half-maximal effect (EC50) was 47.9 µM and the IC50 was 148 µM.
As to `CN(C)CC1CCCCCC(CN(C)C)C1=O` (stereo unspecified), the EC50 is greater than 20 µM and the half-maximal inhibitory concentration (IC50) was 1.07 µM.
Regarding `CC1c2c(cc(=O)n(C)c2O)C(=O)N1Cc1ccccc1` (stereo unspecified), the EC50 is greater than 347 µM and the concentration for half-maximal inhibition (IC50) is 257 µM.
For the compound `CN1C(=O)Cn2c(n[nH]c(=O)c2=O)-c2cc(Cl)ccc21`, the EC50 is greater than 302 µM and the half-inhibitory concentration (IC50) was greater than 302 µM.
`Fc1cc(-c2ncc(Cl)cc2Cl)c2cccccc1-2`: the EC50 is greater than 100 µM and the 50% inhibitory concentration (IC50) is greater than 100 µM.
For `O=C(O)\C=C/C=C/C=C/C=C/C(=O)O`, the EC50 was 126 µM and the 50% inhibitory concentration (IC50) came out at 135 µM.
With `N=C(N)c1ccc(N=NNc2ccc(C(=N)N)cc2)cc1` (tested in a mixture with another compound), the EC50 is greater than 151 µM and the half-maximal inhibitory concentration (IC50) came out at 39.8 µM.

The values above are taken from PubChem BioAssay AID179 (DTP/NCI, 2004).
